In this test the target is 5-HT2A receptors (UniProt P14842). Put plainly: in-vitro affinity to 5-HT2A receptors, [3H]ketanserine displacement (Example A1). The class given is binding. The source says: The 5-HT2A receptors are exposed both to [^3H]ketanserine (a substance known for its affinity to the receptor) and also to the test compound. The decrease in the affinity of [^3H]ketanserine to the receptor is an indication of the affinity of the test substance to the 5-HT2A receptor.
`CN1CCN(c2cnn(-c3ccc(-c4ccc5c(c4)OCO5)cc3)c2-c2ccccc2)CC1` [Example 565, 1-[1-(4-Benzo-1,3-dioxol-5-ylphenyl)-5-phenyl-1H-pyrazol-4-yl]-4-methylpiperazine] displayed an IC50 of 0.01 µM.

Turning to `CC(C)(C)OC(=O)NC1CCN(Cc2cnn(-c3ccc(-c4ccc5c(c4)OCCO5)cc3)c2-c2ccco2)CC1` [Example 566, tert-Butyl (1-{1-[4-(2,3-dihydrobenzo-1,4-dioxin-6-yl)phenyl]-5-furan-2-yl-1H-pyrazol-4-ylmethyl}piperidin-4-yl)carbamate], the IC50 came out at 0.011 µM.

On to `OCC1CCN(Cc2cnn(-c3ccc(-c4ccc(F)cc4)cc3)c2-c2ccco2)C1` (stereo not shown) [Example 567, {1-[1-(4′-Fluorobiphenyl-4-yl)-5-furan-2-yl-1H-pyrazol-4-ylmethyl]pyrrolidin-3-yl}methanol], for which the IC50 is 0.011 µM. For the molecule `Fc1ccc(-c2ccc(-n3ncc(CNC4CCCC4)c3-c3ccco3)cc2)cc1` [Example 568, Cyclopentyl-[1-(4′-fluorobiphenyl-4-yl)-5-furan-2-yl-1H-pyrazol-4-ylmethyl]amine], the IC50 was 0.011 µM. In turn, `CC(C)(C)OC(=O)N1CCN(Cc2cnn(-c3ccc(-c4ccc5c(c4)OCCO5)cc3)c2-c2ccco2)CC1` [Example 572, tert-Butyl 4-{1-[4-(2,3-dihydrobenzo-1,4-dioxin-6-yl)phenyl]-5-furan-2-yl-1H-pyrazol-4-ylmethyl}piperazine-1-carboxylate] came in with an IC50 of 0.012 µM. In the case of `CN1CCN(Cc2cnn(-c3ccc(-c4ccc(F)cc4)cc3)c2-c2c(F)cccc2F)CC1` [Example 573, 1-[5-(2,6-Difluorophenyl)-1-(4′-fluorobiphenyl-4-yl)-1H-pyrazol-4-ylmethyl]-4-methylpiperazine], the IC50 was 0.013 µM. Next, `CN1CCC(N(C)Cc2cnn(-c3ccc(-c4ccc(F)cc4)cc3)c2-c2ccco2)C1` (stereo not shown) [Example 575, [1-(4′-Fluorobiphenyl-4-yl)-5-furan-2-yl-1H-pyrazol-4-ylmethyl]methyl-(1-methyl-3-pyrrolidinyl)amine]: 0.0147 µM. `Cc1noc(C)c1-c1c(CN(C)C)cnn1-c1ccc(-c2ccc(F)cc2)cc1` [Example 577, [5-(3,5-Dimethylisoxazol-4-yl)-1-(4′-fluorobiphenyl-4-yl)-1H-pyrazol-4-ylmethyl]dimethylamine] had an IC50 of 0.016 µM. Next, `CN1CCN(c2cnn(-c3ccc(-c4cccc(F)c4)cc3)c2-c2ccccc2)CC1` [Example 578, 1-[1-(3′-Fluorobiphenyl-4-yl)-5-phenyl-1H-pyrazol-4-yl]-4-methylpiperazine]: 0.016 µM; `CN(CCc1ccccc1)Cc1cnn(-c2ccc(-c3ccc(F)cc3)cc2)c1-c1ccco1` [Example 579, [1-(4′-Fluorobiphenyl-4-yl)-5-furan-2-yl-1H-pyrazol-4-ylmethyl]methylphenethylamine]: 0.016 µM.

Molecule `COCCCNCc1cnn(-c2ccc(-c3ccc(F)cc3)cc2)c1-c1ccco1` [Example 580, [1-(4′-Fluorobiphenyl-4-yl)-5-furan-2-yl-1H-pyrazol-4-ylmethyl]-(3-methoxypropyl)amine] displayed a half-inhibitory concentration (IC50) of 0.016 µM.

The molecule `Fc1ccc(CCN2CCC(NCc3cnn(-c4ccc(-c5ccc(F)cc5)cc4)c3-c3ccco3)C2)cc1` (stereo not shown) [Example 581, [1-(4′-Fluorobiphenyl-4-yl)-5-furan-2-yl-1H-pyrazol-4-ylmethyl]-{1-[2-(4-fluorophenyl)ethyl]pyrrolidin-3-yl}amine] registered an IC50 of 0.017 µM. Next, `Fc1ccc(-c2ccc(-n3ncc(CNC4CC4)c3-c3ccco3)cc2)cc1` [Example 582]: 0.017 µM; `COc1ccc(-c2ccc(-n3ncc(CN)c3-c3ccco3)cc2)cc1` [Example 584, C-[5-Furan-2-yl-1-(4′-methoxybiphenyl-4-yl)-1H-pyrazol-4-yl]methylamine]: 0.018 µM; `O=C(c1ccccc1)C1CCCN(Cc2cnn(-c3ccc(-c4ccc(F)cc4)cc3)c2-c2ccco2)C1` (stereo not shown) [Example 593, 1-{1-[1-(4′-Fluorobiphenyl-4-yl)-5-furan-2-yl-1H-pyrazol-4-ylmethyl]piperidin-3-yl}-1-phenylmethanone]: 0.02 µM. The molecule `CC1CCCN1Cc1cnn(-c2ccc(-c3ccc4c(c3)OCCO4)cc2)c1-c1ccco1` (stereo not shown) [Example 594, 1-[4-(2,3-Dihydrobenzo-1,4-dioxin-6-yl)phenyl]-5-furan-2-yl-4-(2-methylpyrrolidin-1-ylmethyl)-1H-pyrazole] had an IC50 of 0.021 µM. Next, `CCN(C)Cc1cnn(-c2ccc(-c3ccc(F)cc3)cc2)c1-c1c(C)noc1C` [Example 597, [5-(3,5-Dimethylisoxazol-4-yl)-1-(4′-fluorobiphenyl-4-yl)-1H-pyrazol-4-ylmethyl]ethylmethylamine]: 0.023 µM.

In turn, `COc1cccc(-c2c(CN3CCC(O)C3)cnn2-c2ccc(-c3ccc(F)cc3)cc2)c1` (stereo not shown) [Example 598, 1-[1-(4′-Fluorobiphenyl-4-yl)-5-(3-methoxyphenyl)-1H-pyrazol-4-ylmethyl]pyrrolidin-3-ol] returned an IC50 of 0.024 µM. Next, `CN1CCN(Cc2cnn(-c3ccc(-c4ccccc4F)cc3)c2-c2ccco2)CC1` [Example 599, 1-[1-(2′-Fluorobiphenyl-4-yl)-5-furan-2-yl-1H-pyrazol-4-ylmethyl]-4-methylpiperazine]: 0.025 µM; `COCCNCc1cnn(-c2ccc(-c3ccc(F)cc3)cc2)c1-c1ccco1` [Example 603, [1-(4′-Fluorobiphenyl-4-yl)-5-furan-2-yl-1H-pyrazol-4-ylmethyl]-(2-methoxyethyl)amine]: 0.026 µM. Turning to `Fc1ccc(-c2ccc(-n3ncc(CNCCc4ccccn4)c3-c3ccco3)cc2)cc1` [Example 604, [1-(4′-Fluorobiphenyl-4-yl)-5-furan-2-yl-1H-pyrazol-4-ylmethyl]-(2-pyridin-2-ylethyl)amine], the IC50 was found to be 0.026 µM.

`CC(C)(C)OC(=O)NC1CCN(Cc2cnn(-c3ccc(-c4cccc(F)c4)cc3)c2-c2ccco2)CC1` [Example 608, tert-Butyl {1-[1-(3′-fluorobiphenyl-4-yl)-5-furan-2-yl-1H-pyrazol-4-ylmethyl]piperidin-4-yl}carbamate] yielded an IC50 of 0.029 µM. In the case of `CCN(CC)CCCNCc1cnn(-c2ccc(-c3ccc(F)cc3)cc2)c1-c1ccco1` [Example 609, N,N-Diethyl-N′-[1-(4′-fluorobiphenyl-4-yl)-5-furan-2-yl-1H-pyrazol-4-ylmethyl]propane-1,3-diamine], the 50% inhibitory concentration (IC50) stood at 0.029 µM. `CC(C)(C)OC(=O)NC1CCN(Cc2cnn(-c3ccc(-c4ccc5c(c4)OCO5)cc3)c2-c2ccco2)CC1` [Example 611, tert-Butyl {1-[1-(4-benzo-1,3-dioxol-5-ylphenyl)-5-furan-2-yl-1H-pyrazol-4-ylmethyl]piperidin-4-yl}carbamate] came in with an IC50 of 0.031 µM. For `O=C1CN(Cc2cnn(-c3ccc(-c4ccc5c(c4)OCO5)cc3)c2-c2ccco2)CCN1` [Example 612, 4-[1-(4-Benzo-1,3-dioxol-5-ylphenyl)-5-furan-2-yl-1H-pyrazol-4-ylmethyl]piperazin-2-one], the IC50 is 0.031 µM.

Molecule `COc1ccc(-c2ccc(-n3ncc(CNCc4ccncc4)c3-c3ccco3)cc2)cc1` [Example 615, [5-Furan-2-yl-1-(4′-methoxybiphenyl-4-yl)-1H-pyrazol-4-ylmethyl]pyridin-4-ylmethylamine] came in with an IC50 of 0.032 µM. `CC1CCCN1Cc1cnn(-c2ccc(-c3ccc4c(c3)OCO4)cc2)c1-c1ccco1` (stereo not shown) [Example 616, 1-(4-Benzo-1,3-dioxol-5-ylphenyl)-5-furan-2-yl-4-(2-methylpyrrolidin-1-ylmethyl)-1H-pyrazole] came in with an IC50 of 0.032 µM. `OCCCCNCc1cnn(-c2ccc(-c3ccc(F)cc3)cc2)c1-c1ccco1` [Example 617, 4-{[1-(4′-Fluorobiphenyl-4-yl)-5-furan-2-yl-1H-pyrazol-4-ylmethyl]amino}butan-1-ol] registered a 50% inhibitory concentration (IC50) of 0.032 µM. Take `CC1CCCN1Cc1cnn(-c2ccc(-c3cccc(F)c3)cc2)c1-c1ccco1` (stereo not shown) [Example 620, 1-(3′-Fluorobiphenyl-4-yl)-5-furan-2-yl-4-(2-methylpyrrolidin-1-ylmethyl)-1H-pyrazole]: the half-maximal inhibitory concentration (IC50) worked out at 0.034 µM.

In the case of `Fc1ccc(-c2ccc(-n3ncc(CNC4CN5CCC4CC5)c3-c3ccco3)cc2)cc1` (stereo not shown) [Example 621], the IC50 was 0.034 µM.

The molecule `CCCCN(Cc1cnn(-c2ccc(-c3ccc(F)cc3)cc2)c1-c1ccco1)Cc1cnn(-c2ccc(-c3ccc(F)cc3)cc2)c1-c1ccco1` [Example 622, Butylbis-[1-(4′-fluorobiphenyl-4-yl)-5-furan-2-yl-1H-pyrazol-4-ylmethyl]amine] showed an IC50 of 0.034 µM. Next, `COc1cccc(-c2c(CN3CCN(C)CC3)cnn2-c2ccc(-c3ccc(F)cc3)cc2)c1` [Example 627, 1-[1-(4′-Fluorobiphenyl-4-yl)-5-(3-methoxyphenyl)-1H-pyrazol-4-ylmethyl]-4-methylpiperazine]: 0.036 µM. Next, `CC(C)CCNCc1cnn(-c2ccc(-c3ccc(F)cc3)cc2)c1-c1ccco1` [Example 628, [1-(4′-Fluorobiphenyl-4-yl)-5-furan-2-yl-1H-pyrazol-4-ylmethyl]-(3-methylbutyl)amine]: 0.036 µM; `CN1CCN(Cc2cnn(-c3ccc(-c4ccc(F)cc4)cc3)c2-c2ccncc2)CC1` [Example 629, 1-[1-(4′-Fluorobiphenyl-4-yl)-5-pyridin-4-yl-1H-pyrazol-4-ylmethyl]-4-methylpiperazine]: 0.037 µM. `NC1CCN(Cc2cnn(-c3ccc(-c4ccc5c(c4)OCO5)cc3)c2-c2ccco2)CC1` [Example 631, 1-[1-(4-Benzo-1,3-dioxol-5-ylphenyl)-5-furan-2-yl-1H-pyrazol-4-ylmethyl]piperidin-4-ylamine]: the IC50 was 0.039 µM. Next, `Fc1ccccc1-c1c(CCN2CCOCC2)cnn1-c1ccc(-c2ccccc2)cc1` [Example 632, 4-{2-[1-Biphenyl-4-yl-5-(2-fluorophenyl)-1H-pyrazol-4-yl]ethyl}morpholine]: 0.04 µM; `CCC(CC)CNCc1cnn(-c2ccc(-c3ccc(OC)cc3)cc2)c1-c1ccco1` [Example 637]: 0.042 µM.

These data come from US7842695B2, “Substituted pyrazole compounds” (Merck Patent GmbH, priority 2003, dated 2010).
